We go through 26 compounds from patent EP0889884B1, “1,2,4-TRIAZINE DERIVATIVES FOR THE INHIBITION OF PROTEIN GLYCOSYLATION” (ALTEON Inc., priority 1996, dated 1997).

Counter-ions that a name gives are not always drawn.

Tested on in one assay: not listed separately
The assay is described as follows: Inhibition of cross-linking of N-acetyl glycyl-lysine methyl ester in the presence of ribose (fluorescence). It counts as biochemical. The note with it: 0.5 M sodium phosphate buffer pH 7.4, 37° C, 16-24 hours, fluorescence 350/400 nm. On the procedure: The following method was used to evaluate the ability of the compounds of the present invention to inhibit the cross-linking of N-acetyl glycyl-lysine methyl ester in the presence of ribose. […] Reaction mixtures are prepared as follows: [table] […] At the end of the incubation period reaction mixture is diluted with 3 ml distilled water and the fluorescence is read using an excitation wavelength of 350 nm and emission wavelength of 400 nm.
One may read the IC50 as the concentration that gives 50% inhibition. For `CCCc1nnc(N)n(N)c1=O` [3,4-diamino-6-propyl-1,2,4-triazine-5(4H)-one hydrochloride], the IC50 stood at 1300 µM.

In the case of `CCOC(=O)CCc1nnc(N)n(N)c1=O` [3,4-diamino-6-(2'-ethoxycarbonylethyl)-1,2,4-triazine-5(4H)-one hydrochloride], the half-inhibitory concentration (IC50) was 840 µM.

Consider `Cc1nnc(N)n(N)c1=O` [3,4-diamino-6-methyl-1,2,4-triazine-5(4H)-one], for which the IC50 amounted to 1230 µM.

Consider `CCCCCCC(C(=O)OCC)c1nnc(N)n(N)c1=O` (centres unmarked) [3,4-diamino-6-(1'-ethoxycarbonylheptyl)-1,2,4-triazine-5(4H)-one hydrochloride], for which the half-maximal inhibitory concentration (IC50) worked out at 480 µM.

As for `COc1cccc(C(=O)Cc2nnc(N)n(N)c2=O)c1` [3,4-diamino-6-(3'-methoxyphenylcarbonylmethylene)-1,2,4-triazine-5(4H)-one hydrochloride], the 50% inhibitory concentration (IC50) is over 10000 µM.

On to `CC(C)(CO)c1nnc(N)n(N)c1=O` [3,4-diamino-6-(1',1'-dimethyl-2'-hydroxyethyl)-1,2,4-triazine-5(4H)-one], for which the half-maximal inhibitory concentration (IC50) was found to be 970 µM.

For `CCC(C)c1nnc(N)n(N)c1=O` (centres unmarked) [3,4-diamino-6-(1-methylpropyl)-1,2,4-triazine-5(4H)-one], the half-inhibitory concentration (IC50) was determined as 1400 µM.

As to `Nc1nnc(CCC(=O)O)c(=O)n1N` [3,4-diamino-6-(2'-carboxyethyl)-1,2,4-triazine-5(4H)-one], the IC50 was 1970 µM.

As for `NNc1nncc(=O)n1N` [4-amino-3-hydrazino-1,2,4-triazin-5(4H)-one hydrochloride], the IC50 was over 10000 µM.

As to `COc1ccc(C=Cc2nnc(N)n(N)c2=O)cc1OC` [3,4-diamino-6-(3,4-dimethoxystyryl)-1,2,4-triazine-5(4H)-one hydrochloride], the IC50 is 350 µM.

On to “2-methyl-[6'-(3',4'-diamino-5(4H)-one-1,2,4-triazinyl)]hydrazide”, for which the IC50 was found to be 830 µM.

On to `Nc1nnc(Cc2ccccc2)c(=O)n1N` [3,4-diamino-6-benzyl-1,2,4-triazine-5(4H)-one hydrochloride], for which the concentration for half-maximal inhibition (IC50) was determined as 1200 µM.

With `NNC(=O)CCc1nnc(N)n(N)c1=O` [3-[6'-(3',4'-diamino-5'(4H)-one-1',2',4'-triazinyl)]-propionic hydrazide hydrochloride], the IC50 turned out to be 1500 µM.

In the case of `CCOC(=O)c1nnc(N)n(N)c1=O` [3,4-diamino-6-carboxyethyl-1,2,4-triazine-5(4H)-one hydrochloride], the half-inhibitory concentration (IC50) was determined as 720 µM.

On to `Nc1nnc(C2CC2)c(=O)n1N` [3,4-diamino-6-cyclopropyl-1,2,4-triazine-5(4H)-one], for which the half-inhibitory concentration (IC50) turned out to be 2000 µM.

Take `CC(C)c1nnc(N)n(N)c1=O` [3,4-diamino-6-isopropyl-1,2,4-triazine-5(4H)-one hydrochloride]: the IC50 is 1050 µM.

For `NNC(=O)c1nnc(N)n(N)c1=O` [6-(3',4'-diamino-5(4H)-one-1,2,4-triazinyl)hydrazide], the IC50 came out at 730 µM.

As for `CCc1nnc(N)n(N)c1=O` [3,4-diamino-6-ethyl-1,2,4-triazine-5(4H)-one hydrochloride], the half-inhibitory concentration (IC50) was determined as 2000 µM.

Regarding `CCOC(=O)C(C)c1nnc(N)n(N)c1=O` (centres unmarked) [3,4-diamino-6-(1'-ethoxycarbonylethyl)-1,2,4-triazine-5(4H)-one hydrochloride], the IC50 is 1650 µM.

Turning to `Cc1nnc(NN)n(N)c1=O` [4-amino-3-hydrazino-6-methyl-1,2,4-triazin-5(4H)-one hydrochloride], the IC50 was under 3000 µM.

As for `Nc1nnc(CCc2ccccc2)c(=O)n1N` [3,4-diamino-6-phenethyl-1,2,4-triazine-5(4H)-one hydrochloride], the IC50 was 2700 µM.

Take `NNc1nnc(Cc2ccc(O)cc2)c(=O)n1N` [4-amino-3-hydrazino-6-(4'-hydroxybenzyl)-1,2,4-triazin-5(4H)-one hydrochloride]: the half-maximal inhibitory concentration (IC50) is over 1000 µM.

Consider `Nc1nnc(Cc2ccc(O)cc2)c(=O)n1N` [3,4-diamino-6-(4-hydroxybenzyl)-1,2,4-triazine-5(4H)-one hydrochloride], for which the IC50 was 4400 µM.

For the compound `CC(C)Cc1nnc(N)n(N)c1=O` [3,4-diamino-6-(2-methypropyl)-1,2,4-triazine-5(4H)-one], the IC50 is 1160 µM.

Take `Nc1nnc(Cc2ccccc2[N+](=O)[O-])c(=O)n1N` [3,4-diamino-6-(2'-nitrobenzyl)-1,2,4-triazine-5(4H)-one hydrochloride]: the IC50 is 900 µM.

The test system of the next assay is fixed protein (gelatin, i.e., collagen) surface. Kind of assay: Surface browning experiment on gelatin/paper disks in glucose-6-phosphate. The note with it: 100 mM glucose-6-phosphate, one week at 50°C; Peridex® at a final concentration of 0.04% chlorhexidine.
Method: To further study the ability of inhibitors of nonenzymatic browning to prevent the discoloration of protein on a surface, such as that which occurs on the tooth surface, the following surface browning experiment is performed. As a substitute for a pellicle-covered tooth surface, unexposed and developed photographic paper is used to provide a fixed protein (gelatin, i.e., collagen) surface on a paper backing. Five millimeter circles are punched and immersed for one week at 50°C in a solution of 100 mM glucose-6-phosphate in a 0.5 M phosphate buffer, pH 7.4, containing 3 mM sodium azide. […] In addition to the glucose-6-phosphate, chlorhexidine and/or a compound of Formula I are included. After incubation, the gelatin/paper disks are rinsed with water, observed for brown color, and photographed.
In the case of `[H]/N=C(\N/C(=N/[H])NCCCCCCNC(=N)NC(=N)Nc1ccc(Cl)cc1)Nc1ccc(Cl)cc1` [chlorhexidine], the “brown color of gelatin/paper disks” value is given as “significant browning”.
